In patent US9550739B2, “Molecules having certain pesticidal utilities, and intermediates, compositions, and processes related thereto” (priority 2014, dated 2017):
Read-outs that look alike come from different tables or passages of the source.

Legend:
Type in all cases: in vivo
[1] = tested on: Yellow Fever Mosquito (Aedes aegypti, AEDSAE) ("YFM"); conditions: about 1 day-old larvae, 4000 ppm master solution diluted, 3 days, room temperature
Outline: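 Compounds from 4000 ppm DMSO master plates, diluted in 90:10 water:acetone, dispensed into 96-well plates, six replicates. About 1-day-old larvae added in liver-powder water. Wells covered, held 3 days at room temperature, then scored for mortality.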

[2] = tested on: Cabbage Looper (Trichoplusia ni, TRIPNI) ("CL"); assay: Bioassays on Cabbage Looper (CL), 128-well diet tray assay; conditions: Trichoplusia ni, 168 h, read-out: CL % Control (or Mortality) rating
Outline: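 Second instar larvae (one to five per well) placed on artificial diet treated with 50 μg/cm^2 compound in acetone-water, eight wells per compound. Held at 25° C, 14:10 light-dark for five to seven days; percent mortality averaged across wells.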

[3] = tested on: Beet Armyworm (Spodoptera exigua, LAPHEG) ("BAW"); assay: Bioassays on Beet Armyworm (BAW), 128-well diet tray assay; conditions: Spodoptera exigua, 168 h, read-out: BAW % Control (or Mortality) rating
Outline: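 Second-instar larvae, one to five per well, were placed on artificial diet surface-treated with 50 μg/cm^2 compound in 90:10 acetone-water and dried, eight wells per compound. Trays were held at 25° C, 14:10 light-dark, for five to seven days. Percent mortality per well was averaged over the eight wells.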

[4] = tested on: Green Peach Aphid (Myzus persicae, MYZUPE) ("GPA"); assay: Bioassays on Green Peach Aphid (GPA), cabbage seedling foliar spray; conditions: 72 h, 200 ppm foliar spray on cabbage seedlings, three days, Abbott corrected % control, read-out: GPA % Control (or Mortality) rating
Method: Certain molecules disclosed in this document were tested against GPA using procedures described in the following example. In the reporting of the results, the “GPA Rating Table” was used (See Table Section).
Cabbage seedlings grown in 3-inch pots, with 2-3 small (3-5 cm) true leaves, were used as test substrate. The seedlings were infested with 20-50 GPA (wingless adult and nymph stages) one day prior to chemical application. Four pots with individual seedlings were used for each treatment. Test compounds (2 mg) were dissolved in 2 mL of acetone/methanol (1:1) solvent, forming stock solutions of 1000 ppm test compound. The stock solutions were diluted 5× with 0.025% Tween 20 in water to obtain the solution at 200 ppm test compound. A hand-held aspirator-type sprayer was used for spraying a solution to both sides of […] leaves until runoff. Reference plants (solvent check) were sprayed with the diluent only containing 20% by volume of acetone/methanol (1:1) solvent. Treated plants were held in a holding room for three days at approximately 25° C. and ambient relative humidity (RH) prior to grading. Evaluation was conducted by counting the number of live aphids per plant under a microscope. Percent Control was measured by using Abbott's correction formula (W. S. Abbott, “A Method of Computing the Effectiveness of an Insecticide” J. Econ. Entomol. 18 (1925), pp. 265-267) as follows. Corrected % Control=100*(X−Y)/X • where • X=No. of live aphids on solvent check plants and • Y=No. of live aphids on treated plants

[5] = second instar BAW larvae, 50 μg/cm^2 on artificial diet, five to seven days, 25° C.

SMILES | YFM % Control (or Mortality) rating [1] | mortality at 50 µg/cm2 [2] [%] | mortality at 50 µg/cm2 [3, 5] [%] | mortality at 200 ppm [4] [%] | mortality at 50 µg/cm2 [3] [%]
Cc1cccc(C)c1-c1cccc(C(=O)Nc2ccc(-c3ncn(-c4ccc(OC(F)(F)F)cc4)n3)cc2)c1 [F12, 2′,6′-Dimethyl-N-(4-(1-(4-(trifluoromethoxy)phenyl)-1H-1,2,4-triazol-3-yl)phenyl)-[1,1′-biphenyl]-3-carboxamide] | A (80-100) | 50 to 100 | 50 to 100 | 0 to 80 | –
O=C(Nc1ccc(-c2ncn(-c3ccc(C(F)(F)F)cc3)n2)cc1)c1ccc(F)c(-c2ccccc2F)c1 [F59, 2′,6-Difluoro-N-(4-(1-(4-(trifluoromethyl)phenyl)-1H-1,2,4-triazol-3-yl)phenyl)-[1,1′-biphenyl]-3-carboxamide] | A (80-100) | 50 to 100 | 50 to 100 | 0 | –
COc1ccccc1-c1cccc(C(=O)Nc2ccc(-c3ncn(-c4ccc(C(F)(F)F)cc4)n3)cc2)c1 [F60, 2′-Methoxy-N-(4-(1-(4-(trifluoromethyl)phenyl)-1H-1,2,4-triazol-3-yl)phenyl)-[1,1′-biphenyl]-3-carboxamide] | A (80-100) | 50 to 100 | 50 to 100 | 0 to 80 | –
CCOc1ccccc1-c1cccc(C(=O)Nc2ccc(-c3ncn(-c4ccc(OC(F)(F)F)cc4)n3)cc2)c1 [F38, 2′-Ethoxy-N-(4-(1-(4-(trifluoromethoxy)phenyl)-1H-1,2,4-triazol-3-yl)phenyl)-[1,1′-biphenyl]-3-carboxamide] | A (80-100) | 50 to 100 | 50 to 100 | 0 to 80 | –
CCc1ccccc1-c1cccc(C(=O)Nc2ccc(-c3ncn(-c4ccc(OC(F)(F)F)cc4)n3)cc2)c1 [F8, 2′-Ethyl-N-(4-(1-(4-(trifluoromethoxy)phenyl)-1H-1,2,4-triazol-3-yl)phenyl)-[1,1′-biphenyl]-3-carboxamide] | B (More than 0-Less than 80) | 50 to 100 | 50 to 100 | 0 to 80 | –
O=C(Nc1ccc(-c2ncn(-c3ccc(OC(F)(F)F)cc3)n2)cc1)c1cccc(-c2ccccc2)c1 [F24, N-(4-(1-(4-(trifluoromethoxy)phenyl)-1H-1,2,4-triazol-3-yl)phenyl)-[1,1′-biphenyl]-3-carboxamide] | D (No activity noticed in this bioassay) | 50 to 100 | 50 to 100 | 0 to 80 | –
O=C(Nc1ccc(-c2ncn(-c3ccc(OC(F)(F)C(F)(F)F)cc3)n2)cc1)c1cccc(-c2ccccc2OC(F)(F)F)c1 [F36, N-(4-(1-(4-(Perfluoroethoxy)phenyl)-1H-1,2,4-triazol-3-yl)phenyl)-2′-(trifluoromethoxy)-[1,1′-biphenyl]-3-carboxamide] | D (No activity noticed in this bioassay) | 50 to 100 | 0 | – | –
Cc1c(C(=O)Nc2ccc(-c3ncn(-c4ccc(OC(F)(F)F)cc4)n3)cc2)cccc1-c1ccccc1 [F14, 2-Methyl-N-(4-(1-(4-(trifluoromethoxy)phenyl)-1H-1,2,4-triazol-3-yl)phenyl)-[1,1′-biphenyl]-3-carboxamide] | D (No activity noticed in this bioassay) | 50 to 100 | 50 to 100 | 0 to 80 | –
O=C(NCCc1ccc(-c2ncn(-c3ccc(OC(F)(F)F)cc3)n2)cc1)c1ccc(F)c(-c2ccccc2F)c1 [F55, 2′,6-Difluoro-N-(4-(1-(4-(trifluoromethoxy)phenyl)-1H-1,2,4-triazol-3-yl)phenethyl)-[1,1′-biphenyl]-3-carboxamide] | D (No activity noticed in this bioassay) | 50 to 100 | 50 to 100 | 0 to 80 | –
O=C(Nc1ccc(-c2ncn(-c3ccc(OC(F)(F)F)cc3)n2)cc1)c1cc(F)cc(-c2ccccc2)c1 [F25, 5-Fluoro-N-(4-(1-(4-(trifluoromethoxy)phenyl)-1H-1,2,4-triazol-3-yl)phenyl)-[1,1′-biphenyl]-3-carboxamide] | D (No activity noticed in this bioassay) | 50 to 100 | – | – | 50 to 100
